This note sets out measurements from patent publication US20140378409A1, “EFFECT POTENTIATOR FOR ANTITUMOR AGENTS” (TAIHO PHARMACEUTICAL CO., LTD., priority 2011, published 2014).

Structures are written as SMILES. Where a name gives a salt, the structure may show the parent alone.

Test [1] relates to human lung cancer cell line NCI-H441. The test can be described thus: Antitumor effect potentiating activity for gemcitabine hydrochloride, NCI-H441 subcutaneously transplanted model (nude mice). The test is classed as in vivo, human; nude mice. As to the method: (§1) As an index of the antitumor effect, the TV on Day 15 was measured for each medicament treated group, and the relative tumor volume (RTV) for Day 1 and T/C (%) were calculated by the following formulas to evaluate the antitumor effect.
(§2) TV (mm^3)=(Major axis×minor axis^2)/2
(§3) RTV=(TV on Day 15)/(TV on Day 1)
(§4) T/C (%)=(Mean RTV value of test solution administered group)/(mean RTV value of control group)×100
A human lung cancer cell line (NCI-H441) was transplanted into the right chest of a 5- to 6-week old male BALB/cA Jcl-nu mouse, and the mouse was used in the same manner as described in Test Example 1.
The test solution for a gemcitabine hydrochloride (GEMZAR, manufactured by Eli Lilly and Co.) single administration group was prepared such that the administered dose would be 240 mg/kg/day. Furthermore, the test solution of the compound (1) was prepared such that the administered dose would be 200 mg/kg/day.
The compound (1) was orally administered every day for 14 consecutive days from Day 1, and gemcitabine hydrochloride was administered on Day 1 and Day 8 through the mouse tail vein. Ina combined administration group, 200 mg/kg/day of the compound (1) and 240 mg/kg/day of gemcitabine hydrochloride were administered, and the effects were evaluated in the same manner as described in Test Example 1.

The subject of test [2] is human colorectal cancer cell line HT-29. The test can be described thus: Antitumor effect potentiating activity for irinotecan hydrochloride, HT-29 subcutaneously transplanted model (nude mice). The test is classed as in vivo, human; nude mice. The conditions noted are these: HT-29, nude mice, Day 15. How it is done:
as §1, §2, §3, §4
(§5) Furthermore, as an index of toxicity, the body weight [BW] was measured over time, and the mean body weight change [BWC (%)] up to Day 15 with respect to Day 1 was calculated by the following formula (n: day of body weight measurement carried out at a rate of two times/week, and the final day of measurement corresponds to Day 15, which is the final evaluation day).
(§6) BWC (%)=[(BW on Day n)−(BW on Day 1)]/(BW on Day 1)×100

Test [3] relates to human gastric cancer cell line NCI-N87. Kind of test: Antitumor effect potentiating activity for lapatinib, NCI-N87 subcutaneously transplanted model (nude mice). The conditions noted are these: 14 days. The test is classed as in vivo, human; nude mice. As to the method: as §1, §2, §3, §4
A human gastric cancer cell line (NCI-N87) was transplanted into the right chest of a 5- to 6-week old male BALB/cA Jcl-nu mouse, and the mouse was used in the same manner as described in Test Example 1. The test solution for a lapatinib (manufactured by LC Laboratories, Inc.) single administration group was prepared such that the amount of administration would be 100 mg/kg/day. Furthermore, the test solution of the compound (1) was prepared such that the amount of administration would be 200 mg/kg/day of the compound (1).
The compound (1) and lapatinib were orally administered every day for 14 consecutive days from Day 1. In a combined administration group, 200 mg/kg/day of the compound (1) and 100 mg/kg/day of lapatinib were administered, and the effects were evaluated in the same manner as described in Test Example 1.

Test [4] has as its system human lung cancer cell line NCI-H460. The test can be described thus: Antitumor effect potentiating activity for paclitaxel, NCI-H460 subcutaneously transplanted model (nude mice). The test is classed as in vivo, human; nude mice. How it is done:
A human lung cancer cell line (NCI-H460) was transplanted into the right chest of a 5- to 6-week old male BALB/cA Jcl-nu mouse. After the tumor transplantation, the major axis (mm) and the minor axis (mm) of the tumor were measured to calculate the tumor volume (TV), and then mice were allocated to each treatment group such that the average TV's of each group would be uniform. The day on which this grouping (n=5) was performed was designated as Day 1.
The test solution for a paclitaxel (TAXOL injection, Bristol Myers K.K.) single administration group was prepared such that the administered dose of paclitaxel would be 60 mg/kg/day. Furthermore, the test solution for a compound (1) single administration group was prepared such that the administered dose would be 200 mg/kg/day. The compound (1) was orally administered every day for 14 consecutive days from Day 1, and paclitaxel was administered on Day 1 through the mouse tail vein. In a combined administration group, 200 mg/kg/day of the compound (1) and 60 mg/kg/day of paclitaxel were administered.
as §1, §2, §3, §4, §5, §6

Test [5] has as its system human gastric cancer cell line NUGC-4. Kind of test: Antitumor effect potentiating activity for paclitaxel, NUGC-4 subcutaneously transplanted model (nude mice). The note with it: NUGC-4, nude mice, Day 15. The test is classed as in vivo, human; nude mice. How it is done: as §1, §2, §3, §4, §5, §6
A human gastric cancer cell line (NUGC-4) was transplanted into the right chest of a 5- to 6-week old male BALB/cA Jcl-nu mouse, and the mouse was used in the same manner as described in Test Example 1.
The test solution for a paclitaxel (TAXOL injection, manufactured by Bristol Myers K.K.) single administration group was prepared such that the amount of administration of paclitaxel would be 60 mg/kg/day.
The test solution of the compound (1) was prepared such that the amount of administration would be 12.5 mg/kg/day of the compound (1). In a combined administration group, 12.5 mg/kg/day of the compound (1) and 60 mg/kg/day of paclitaxel were administered. The compound (1) was orally administered every day for 14 consecutive days from Day 1, paclitaxel was administered on Day 1 through the mouse tail vein, and evaluation was made in the same manner as described in Test Example 1.
Furthermore, the body weight changes over time, which is an indicator of toxicity, were also evaluated in the same manner as described in Test Example 1.

The test system is the same in test [6]. Kind of test: Antitumor effect potentiating activity for TS-1, NUGC-4 subcutaneously transplanted model (nude rats). The test is classed as in vivo, human; nude rats. The conditions noted are these: NUGC-4, nude rats, Day 15, 14 days. As to the method:
as §1, §2, §3, §4
A human gastric cancer cell line (NUGC-4) was transplanted into the right chest of a 5- to 6-week old male nude rat, and the rat was used in the same manner as described in Test Example 1. The test solution for a TS-1 (TS-1, manufactured by Taiho Pharmaceutical Co., Ltd.) single administration group was prepared such that the amount of administration of tegafur would be 18 mg/kg/day. Furthermore, the test solution of the compound (1) was prepared such that the amount of administration would be 250 mg/kg/day and 50 mg/kg/day.
The compound (1) and TS-1 were orally administered every day for 14 consecutive days from Day 1. In a combined administration group, 250 mg/kg/day and 50 mg/kg/day of the compound (1) and 18 mg/kg/day of TS-1 were administered, and the effects were evaluated in the same manner as described in Test Example 1.

Setting [7] is: Day 15, 240 mg/kg/day, tail vein Day 1 and Day 8.
[8] abbreviates: Day 15, lapatinib 100 mg/kg/day oral.
Setting [9] is: Day 15, paclitaxel 60 mg/kg/day, tail vein Day 1.
[10] abbreviates: paclitaxel 60 mg/kg/day, tail vein Day 1.
Where [11] appears, read: Day 15, 200 mg/kg/day oral, 14 consecutive days.

In the case of `Nc1ccn([C@@H]2O[C@H](CO)[C@@H](O)C2(F)F)c(=O)n1` [Gemcitabine hydrochloride, gemcitabine hydrochloride, reference compound], in test [1] (setting [7]), the “RTV (mean ± standard deviation)” value turned out to be 1.10 ± 0.13 and the “T/C (%)” value amounted to 16%.

On to `CCc1c2c(nc3ccc(OC(=O)N4CCC(N5CCCCC5)CC4)cc13)-c1cc3c(c(=O)n1C2)COC(=O)[C@]3(O)CC` [Irinotecan hydrochloride, irinotecan hydrochloride, reference compound], for which the “RTV (mean ± standard deviation)” value in test [2] (50 mg/kg/day, tail vein Day 1, Day 5, Day 9) is recorded as 2.47 ± 0.40.

As to `CS(=O)(=O)CCNCc1ccc(-c2ccc3ncnc(Nc4ccc(OCc5cccc(F)c5)c(Cl)c4)c3c2)o1` [Lapatinib, lapatinib, reference compound], in test [3] (setting [8]), the “RTV (mean ± standard deviation)” value amounted to 1.56 ± 0.18 and the “T/C (%)” value is 62%.

As to `CC(=O)O[C@H]1C(=O)[C@@]2(C)[C@H]([C@H](OC(=O)c3ccccc3)[C@]3(O)C[C@H](OC(=O)[C@H](O)[C@@H](NC(=O)c4ccccc4)c4ccccc4)C(C)=C1C3(C)C)[C@]1(OC(C)=O)CO[C@@H]1C[C@@H]2O` [Paclitaxel, paclitaxel, reference compound], in test [4] (setting [9]), the “RTV (mean ± standard deviation)” value was found to be 3.67 ± 0.42 and the “T/C (%)” value is 41%. Moreover, in test [5] (setting [10]), the “RTV (mean ± standard deviation)” value was determined as 5.77 ± 0.96 and the “T/C (%)” value came to 83%.

Regarding `CNC(=O)c1cc2c(Oc3ccc(NC(=S)NC(=O)Cc4ccccc4)cc3F)ccnc2cc1OC` [compound (1), 4-(2-Fluoro-4-(3-(2-phenylacetyl)thioureido)phenoxy)-7-methoxy-N-methylquinoline-6-carboxamide], the “RTV (mean ± standard deviation)” value in test [4] (setting [11]) is listed as 3.02 ± 0.63; in test [6] (50 mg/kg/day oral), 2.36 ± 0.44; in test [6] (250 mg/kg/day oral), 1.60 ± 0.33; in test [1] (setting [11]), 1.26 ± 0.15; in test [3] (Day 15, 200 mg/kg/day oral), 1.31 ± 0.23; in test [5] (12.5 mg/kg/day oral, 14 days), 6.63 ± 1.91. Besides, the “RTV (mean ± standard deviation)” value in test [2] (50 mg/kg/day oral, 14 days) amounted to 1.83 ± 0.29. Moreover, the “T/C (%)” value in test [4] (setting [11]) turned out to be 34%; in test [6] (50 mg/kg/day oral), 14%; in test [6] (250 mg/kg/day oral), 10%; in test [1] (setting [11]), 18%; in test [3] (Day 15, 200 mg/kg/day oral), 52%; in test [5] (12.5 mg/kg/day oral, 14 days), 95%. For the same compound, in test [2] (50 mg/kg/day oral, 14 days), the “T/C (%)” value came out at 44%.
